Test results reported in PubChem BioAssay (NCI).
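Following 48 hours of exposure in 96-well plates, responses at five concentrations were used to interpolate endpoints linearly. GI50: concentration for 50% inhibition of growth. Definition used: TGI = concentration required for complete inhibition of growth.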

Key:
Assay in all cases: inhibition of tumour cell growth, NCI panel, 48 h
A498 renal = test system: A498 renal
DU-145 prostate = test system: DU-145 prostate
HL-60(TB) leukemia = test system: HL-60(TB) leukemia
IGROV1 ovarian = test system: IGROV1 ovarian
LOX IMVI melanoma = test system: LOX IMVI melanoma
MCF7 breast = test system: MCF7 breast
NCI-H460 lung = test system: NCI-H460 lung
RPMI-8226 leukemia = test system: RPMI-8226 leukemia
SF-268 CNS = test system: SF-268 CNS
TK-10 renal = test system: TK-10 renal

Row | Structure (SMILES) | TGI (A498 renal) | TGI (DU-145 prostate) | TGI (HL-60(TB) leukemia) | TGI (IGROV1 ovarian) | TGI (LOX IMVI melanoma) | TGI (MCF7 breast) | TGI (NCI-H460 lung) | TGI (RPMI-8226 leukemia) | TGI (SF-268 CNS) | TGI (TK-10 renal) | GI50 (A498 renal) | GI50 (HL-60(TB) leukemia) | GI50 (IGROV1 ovarian) | GI50 (LOX IMVI melanoma) | GI50 (MCF7 breast) | GI50 (NCI-H460 lung) | GI50 (RPMI-8226 leukemia) | GI50 (SF-268 CNS) | GI50 (DU-145 prostate) | GI50 (TK-10 renal)
1 | O=C1c2cc(O)c(O)cc2O[C@H](c2ccc(O)c(O)c2)[C@H]1O | > 100 µM | > 100 µM | > 100 µM | > 100 µM | > 100 µM | > 100 µM | > 100 µM | > 100 µM | > 100 µM | > 100 µM |  |  |  |  |  |  |  |  |  | 
2 | Oc1ccc(C(=C(Br)c2ccccc2)c2ccc(O)cc2)cc1 | 34.2 µM | 25.7 µM | > 100 µM | 19.9 µM | 17 µM | 12.4 µM | 31.6 µM | 96.1 µM | 16.5 µM | 31.8 µM |  |  |  |  |  |  |  |  |  | 
3 | CSc1nncc(-c2cc3c(c(SC)n2)CCCC3)n1 | > 100 µM | > 100 µM | > 100 µM |  |  |  | > 100 µM | > 100 µM | > 100 µM | > 100 µM |  |  |  |  |  |  |  |  |  | 
4 | O=[N+]([O-])c1ccc(/C=N/Nc2nc3ccccc3[nH]2)o1 |  | 27.1 µM | 11.4 µM | 26.7 µM | 35 µM |  | > 100 µM | 15.3 µM | 67.6 µM | 50 µM |  |  |  |  |  |  |  |  |  | 
5 | O=C(CSCC(=O)N/N=C/c1cccc(O)c1)N/N=C/c1cccc(O)c1 | > 100 µM | > 100 µM | > 100 µM | > 100 µM |  | > 100 µM | > 100 µM | > 100 µM | > 100 µM | > 100 µM |  |  |  |  |  |  |  |  |  | 
6 | C=C(C#N)C(=O)OCC(CC)CC.C=C(C#N)C(=O)OCC(CC)CC.CS(C)=O.CS(C)=O.Nc1c(N=Nc2ccc(-c3ccc(N=Nc4cc(S(=O)(=O)[O-])c5ccccc5c4N)cc3)cc2)cc(S(=O)(=O)[O-])c2ccccc12.[Pt+2] | > 100 µM |  | 23.6 µM | > 100 µM | > 84.9 µM | > 100 µM | > 100 µM | > 80.8 µM | 59.1 µM |  | > 71.4 µM | 15.8 µM | 29.4 µM | 35 µM | 24.2 µM | 44.4 µM | 26.9 µM | 24.9 µM |  | 
7 | O=C1c2cc3c(cc2-c2c1c1ccc(Cl)cc1c(=O)n2C[C@H](O)CO)OCO3 | 0.16 µM | 1.08 µM | 3.1 µM | > 100 µM | 0.0781 µM | 0.759 µM |  | 0.54 µM | 1.04 µM | 1.76 µM | 0.0387 µM | 0.0331 µM | 0.135 µM | 0.0122 µM | < 0.01 µM |  | 0.0429 µM | 0.0185 µM | 0.0323 µM | 0.277 µM
8 | O=C1C(Cl)N(c2ccccc2Cl)C1c1c[nH]c2ccccc12 (stereo not given) |  |  | > 100 µM | > 100 µM |  |  | > 100 µM | > 100 µM | > 100 µM | > 100 µM |  |  |  |  |  |  |  |  |  | 
9 | CCOC(=O)c1c2c(n(-c3ccc(C)cc3)c1C)-c1ccccc1C(=O)C2(C(=O)OCC)C(=O)OCC | 97.3 µM | > 100 µM | 18.6 µM | > 87.7 µM | > 84.5 µM | 76.6 µM | 98.5 µM | 57.5 µM | > 91.9 µM | > 100 µM |  |  |  |  |  |  |  |  |  | 
10 | CCN(CC)CCNc1ccc2ncn3c4ccc(O)cc4c(=O)c1c23 | 13.7 µM | 18.4 µM | 11.6 µM | 14.3 µM | 3.15 µM | 12.6 µM | 12.2 µM | 11.1 µM | 13.6 µM | 20.1 µM |  |  |  |  |  |  |  |  |  | 
11 | CC(SC(=S)N1CCOCC1)C(=O)Nc1nnc(-c2ccc(Cl)cc2)o1 (stereo not given) | > 100 µM | > 100 µM |  | > 100 µM | > 100 µM | > 100 µM | > 100 µM | 66.3 µM | > 100 µM | > 100 µM |  |  |  |  |  |  |  |  |  | 
12 | COc1ccc(OC)c2sc(N3C(=O)/C(=C/c4cccc(Oc5ccccc5)c4)N=C3c3ccccc3)nc12 | > 100 µM | > 100 µM | > 100 µM | > 100 µM | > 100 µM | > 100 µM | > 100 µM | > 100 µM | > 100 µM | > 100 µM |  |  |  |  |  |  |  |  |  | 
13 | O=C1CC(O)c2cscc21 (stereo not given) | > 100 µM | > 100 µM | > 100 µM | > 100 µM | > 100 µM | > 100 µM | > 100 µM | > 100 µM | > 100 µM | > 100 µM |  |  |  |  |  |  |  |  |  | 
14 | COc1ccc2nc3cc(Cl)ccc3c(NC(C)CCCN(CCCl)CCCl)c2c1 (stereo not given) | 18.7 µM |  | 0.94 µM | 7.11 µM | 1.17 µM |  | 1.58 µM | 2.93 µM | 4.28 µM | 6.04 µM |  |  |  |  |  |  |  |  |  | 
15 | COC(=O)c1cc2c(cc1Cl)Sc1nnc(Nc3ccccc3)n1S2(=O)=O | 12.9 µM | 3.87 µM | 7.62 µM | 2.68 µM | 93.6 µM | 8.94 µM | 23.8 µM | 4.02 µM | 5.48 µM | 8.66 µM |  |  |  |  |  |  |  |  |  | 
16 | Cc1cccc2sc(NC(=O)NS(=O)(=O)n3cnc4ccccc43)nc12 | 72.3 µM | > 100 µM | > 100 µM | 51.1 µM |  | > 100 µM | > 100 µM | 84.3 µM | > 100 µM | > 100 µM |  |  |  |  |  |  |  |  |  | 
17 | COc1ccc2nc3c(c(N)c2c1)C1CCC3C1(C)C (stereo not given) | 70.7 µM | > 100 µM | 68.6 µM | > 100 µM | > 100 µM | > 100 µM | > 100 µM | 58.7 µM | > 100 µM | > 100 µM |  |  |  |  |  |  |  |  |  | 
18 | O=S(=O)(/N=C(\NO)Nc1ccc(Cl)cc1)c1cc(C(F)(F)F)cc(C(F)(F)F)c1 |  | 44.1 µM | 79 µM | 31.6 µM | 34.2 µM |  | 73.6 µM |  | 50.7 µM | 37.6 µM |  |  |  |  |  |  |  |  |  | 
19 | Cc1ccc(S(=O)(=O)N(CC(O)COc2ccccc2)c2c(F)cccc2F)cc1 (stereo not given) | 38.8 µM | > 100 µM | 93.1 µM |  | 28.5 µM | 30.7 µM | 31.6 µM | 34 µM | 37.4 µM | 97.5 µM |  |  |  |  |  |  |  |  |  | 
20 | C=CCNC(=O)C(C)C1CCC2(C)C=CC(=O)C(C)=C2C1O (stereo not given) | > 100 µM |  | > 100 µM | > 100 µM | > 100 µM | > 100 µM | > 100 µM | > 100 µM | > 100 µM |  |  |  |  |  |  |  |  |  |  | 
21 | Cc1ccc(S(=O)(=O)OC2CC(C(C)(C)C)CCC2c2ccccc2)cc1 (stereo not given) | > 100 µM | > 100 µM | > 100 µM | > 100 µM | > 100 µM | > 100 µM | > 100 µM | > 100 µM |  | > 100 µM |  |  |  |  |  |  |  |  |  | 
22 | O=C1c2ccccc2C(=O)c2[nH]cnc21 | > 100 µM |  | > 100 µM |  |  |  | > 100 µM |  | > 100 µM | > 100 µM |  |  |  |  |  |  |  |  |  | 
23 | NCCOc1cccc(C2(N3CCCCC3)CCCCC2)c1 | 98.6 µM | > 100 µM | 89.2 µM |  | 28.9 µM | > 100 µM | > 100 µM | 48.4 µM | 86.7 µM | > 100 µM |  |  |  |  |  |  |  |  |  | 
24 | O=c1[nH]c2[nH]c(=S)[nH]c(=S)c2[nH]1 | > 100 µM |  | > 100 µM | > 100 µM | > 100 µM |  | > 100 µM | > 100 µM | > 100 µM | > 100 µM |  |  |  |  |  |  |  |  |  | 
